Source: ChEMBL document CHEMBL3044587, “Synthesis of B-ring substituted flavones and evaluation of their antitumor and antioxidant activities” (Med Chem Res, 2013)
Values after ≈ are worked out from the molar mass of the structure shown. Structures can show the parent of a compound that is named as a salt.

Experiments:
Type in all cases: functional
MCF7 [1] = assay: Cytotoxicity against Homo sapiens (human) MCF7 cells after 48 hr by SRB assay; settings: MCF7, 48 h
HepG2 [2] = assay: Cytotoxicity against Homo sapiens (human) HepG2 cells after 48 hr by SRB assay; settings: HepG2, 48 h
MOLT-4 [3] = assay: Cytotoxicity against Homo sapiens (human) MOLT4 cells after 48 hr by SRB assay; settings: MOLT-4, 48 h
Liver microsome = assay: Antioxidant activity in Wistar albino Rattus norvegicus (rat) liver microsomes assessed as inhibition of lipid peroxidation after 1 hr by TBARS method
MOLT-4 [4] = assay: Growth inhibition of Homo sapiens (human) MOLT4 cells at 100 uM after 48 hr by SRB assay; settings: MOLT-4, 48 h, read-out: GI
MCF7 [5] = assay: Growth inhibition of Homo sapiens (human) MCF7 cells at 100 uM after 48 hr by SRB assay; settings: MCF7, 48 h, read-out: GI
HepG2 [6] = assay: Growth inhibition of Homo sapiens (human) HepG2 cells at 100 uM after 48 hr by SRB assay; settings: HepG2, 48 h, read-out: GI

SMILES | IC50 (Liver microsome) [µg/mL] | GI50 (MCF7 [1]) [µM] | GI50 (HepG2 [2]) [µM] | GI50 (MOLT-4 [3]) [µM] | inhibition of growth at 100 µM (MOLT-4 [4]) [%] | inhibition of growth at 100 µM (MCF7 [5]) [%] | inhibition of growth at 100 µM (HepG2 [6]) [%]
O=c1cc(-c2cccc([N+](=O)[O-])c2)oc2ccccc12 | 60 (≈ 225 µM) | 31 | 94.9 | 36 |  |  | 
O=c1c(O)c(-c2ccc(O)c(O)c2)oc2cc(O)cc(O)c12 [QUERCETIN] | 20 (≈ 66.2 µM) |  |  |  |  |  | 
O=c1cc(-c2ccc(Cl)cc2)oc2ccccc12 | 60 (≈ 234 µM) |  |  |  | < 50 | < 50 | < 50
O=c1cc(-c2ccc(Cl)c([N+](=O)[O-])c2)oc2ccccc12 | 80 (≈ 265 µM) | 40.9 | 93.8 | 50.7 |  |  | 
COc1cccc2c1C(=O)c1c(O)c3c(c(O)c1C2=O)C[C@@](O)(C(=O)CO)C[C@@H]3O[C@H]1C[C@H](N)[C@H](O)[C@H](C)O1 [DOXORUBICIN HYDROCHLORIDE] |  | < 0.1 | < 0.1 | < 0.1 |  |  | 

The next lines start with results.

IC50 (Liver microsome) [µg/mL] | SMILES | GI50 (MCF7 [1]) [µM] | GI50 (HepG2 [2]) [µM] | GI50 (MOLT-4 [3]) [µM] | inhibition of growth at 100 µM (MOLT-4 [4]) [%] | inhibition of growth at 100 µM (MCF7 [5]) [%] | inhibition of growth at 100 µM (HepG2 [6]) [%]
100 (≈ 450 µM) | O=c1cc(-c2ccccc2)oc2ccccc12 [FLAVONE] | 69.3 | 50.6 |  | < 50 |  | 
40 (≈ 142 µM) | COc1ccc(-c2cc(=O)c3ccccc3o2)cc1OC [3',4'-DIMETHOXYFLAVONE] |  |  |  | < 50 | < 50 | < 50
60 (≈ 236 µM) | O=c1cc(-c2ccccc2)oc2cc(O)cc(O)c12 [CHRYSIN] | 69 |  | 58.6 |  |  | < 50
40 (≈ 142 µM) | COc1cc(OC)cc(-c2cc(=O)c3ccccc3o2)c1 [3',5'-DIMETHOXYFLAVONE] | < 0.1 | 58.8 | < 0.1 |  |  | 
60 (≈ 238 µM) | COc1ccc(-c2cc(=O)c3ccccc3o2)cc1 [4'-METHOXYFLAVONE] | 61.8 |  | 99.2 |  |  | < 50
